Data from patent US8445491B2, “Wnt protein signalling inhibitors” (The Board of Regents of the University of Texas System, priority 2008, dated 2013).

Columns and labels:
Wnt/β-catenin pathway = test: luciferase-based reporter assay (SuperTopFlash) measuring Wnt/β-catenin-dependent transcriptional response, L-Wnt-STF cells; format: cell-based; conditions: Mus musculus
Procedure: Tables 1 and 2 provides further examples of such compounds, as well as their activities as determined by a luciferase-based reporter assay that measures Wnt/β-catenin-dependent transcriptional response.
For the “primary screen” and “dose-dependent test,” ˜5,000 L-Wnt-STF cells were seeded into each well of a white opaque 384 well plate and individual compounds from the UTSW chemical library added 24 hrs later to each well at a final concentration of 2.5 μM (primary screen) or otherwise indicated concentrations. Luciferase activities were measured 24 hrs later. To identify FL inhibitors and compounds that blocked protein secretion, L-cells were transiently transfected with CMV-FL and CMV-GL constructs and immediately incubated with compounds. Culture medium and cell lysates were analyzed for GL and FL activities, respectively, after 24 hrs. For the “exogenous Wnt test,” Wnt3A-containing conditioned medium, prepared following the protocol provided ATCC, was applied to HEK293 cells transiently transfected with STF and control reporters. For Hedgehog and Notch tests, NIH-3T3 cells or L-cells, respectively, were transiently transfected with indicated reporter constructs and immediately incubated with compounds. Luciferase activities were measured 24 hrs later. The “Wnt secretion test” was performed in L-cells transiently transfected with the Wnt-GL expression construct and immediately incubated with compounds. Culture medium and cellular lysate were analyzed 48 hrs later for GL activity. Assays used to calculate IC50's for compounds were performed as before in L-Wnt-STF cells.
A brief overview of the screen is as follows: mouse L-cells that stably harbor a well-characterized Wnt/β-catenin pathway-responsive firefly luciferase (FL) reporter plasmid (SuperTopFlash or STF), a control reporter, and an expression construct encoding the Wnt protein, Wnt3A, were exposed to individual compounds for two days prior to measurement of reporter activities. Chemicals that altered FL but not control reporter activity were selected for further testing (FIG. 1; FIG. 8). The screening strategy allows for identification of compounds that either potentially increase or decrease Wnt/β-catenin pathway activity.

[1] = tested on: caudal fin regeneration in zebrafish; test: caudal fin regeneration assay in zebrafish; format: in vivo; conditions: zebrafish, FIG. 25, concentration not given
Procedure: FIG. 25. […] Arrows indicate the points of resection.
6 month-old zebrafish were incubated 8 or 14 days at 28.5° C. in aquarium water supplemented with 10 μM IWR or in 0.1% DMSO as a control. Fish were fed standard diet, and solutions were changed daily. At the end of the exposure, zebrafish were incubated in 1 mM BrdU in aquarium water for 2 hrs at room temperature, then washed several times in aquarium water, anesthetized with 0.1% Tricaine, and fixed in 4% paraformaldehyde for 48 hrs at 4° C. The intestine was dissected out, dehydrated, paraffin embedded and sectioned at […] intervals. Sections were stained with Hematoxylin and Eosin or processed for BrdU immunohistochemistry as described (Shepard et al., 2005). Sections from 8 animals each from IWR and DMSO groups were independently scored by four blinded observers. The total number of intestinal folds and total number of BrdU-positive nuclei in the mid and distal sections of the intestine were counted from each section. For caudal fin regeneration assays, zebrafish, 3-6 months of age, were anaesthetized in 0.2% Tricaine and half of the fin was resected using a razor blade to remove Amputees were reared at 31° C. in tanks containing either 300 ml of water with DMSO or IWR (10 μM). Water and compounds were replenished daily for a total assay period of 4 days.

[2] = Table 1, luciferase reporter of Wnt/β-catenin-dependent transcriptional response
[3] = Table 2 (50-52, IWR-8 to IWR-14)

| SMILES | EC50 (Wnt/β-catenin pathway; [2]) [µM] | also measured |
| --- | --- | --- |
| O=C(Nc1cccc(Cl)c1)c1ccc(N2C(=O)[C@@H]3[C@@H]4C=CC(C4)[C@@H]3C2=O)cc1 [Compound 11] | > 25 | – |
| Cc1ccc2cccnc2c1NC(=O)c1ccc(N2C(=O)[C@@H]3[C@@H]4C=CC(C4)[C@@H]3C2=O)cc1 [Compound 3] | 0.8 | – |
| COc1cccc(NS(=O)(=O)c2ccc(N3C(=O)[C@@H]4[C@@H]5C=CC(C5)[C@@H]4C3=O)cc2)c1 [IWR-13] | – | EC50 (Wnt/β-catenin pathway; [3]): 6 µM |
| O=C(Nc1ccc(Br)cc1Br)c1ccc(N2C(=O)[C@@H]3[C@@H]4C=CC(C4)[C@@H]3C2=O)cc1 [Compound 19] | > 25 | – |
| O=C(NCc1ccccc1)c1ccc(N2C(=O)[C@@H]3[C@@H]4C=CC(C4)[C@@H]3C2=O)cc1 [Compound 29] | 20 | – |
| O=C(Nc1cc(F)ccc1F)c1ccc(N2C(=O)[C@@H]3[C@@H]4C=CC(C4)[C@@H]3C2=O)cc1 [Compound 20] | > 25 | – |
| O=C(Nc1cccc(F)c1)c1ccc(N2C(=O)[C@@H]3[C@@H]4C=CC(C4)[C@@H]3C2=O)cc1 [Compound 10] | > 25 | – |
| O=C(Nc1ccccc1F)c1ccc(N2C(=O)[C@@H]3[C@@H]4C=CC(C4)[C@@H]3C2=O)cc1 [Compound 7] | > 25 | – |
| O=C(Nc1ccccc1C(F)(F)F)c1ccc(N2C(=O)[C@@H]3[C@@H]4C=CC(C4)[C@@H]3C2=O)cc1 [Compound 26] | > 25 | – |
| COc1ccccc1NC(=O)c1ccc(N2C(=O)[C@@H]3[C@@H]4C=CC(C4)[C@@H]3C2=O)cc1 [Compound 5] | 1 | – |
| CN(C(=O)c1ccc(N2C(=O)[C@@H]3[C@@H]4C=CC(C4)[C@@H]3C2=O)cc1)c1cccc2cccnc12 [Compound 50] | – | EC50 (Wnt/β-catenin pathway; [3]): > 25 µM |
| O=C(NCc1ccncc1)c1ccc(N2C(=O)[C@@H]3[C@@H]4C=CC(C4)[C@@H]3C2=O)cc1 [Compound 32] | 10 | – |
| O=C(Nc1ccc(F)c(F)c1)c1ccc(N2C(=O)[C@@H]3[C@@H]4C=CC(C4)[C@@H]3C2=O)cc1 [Compound 22] | 3 | – |
| O=C(Nc1ccc(F)cc1F)c1ccc(N2C(=O)[C@@H]3[C@@H]4C=CC(C4)[C@@H]3C2=O)cc1 [Compound 17] | 9 | inhibition of fin regeneration [1]: only retarded the growth of the tail fin |
| O=C1[C@@H]2[C@@H]3C=CC(C3)[C@@H]2C(=O)N1c1ccc(S(=O)(=O)Nc2ccc(Br)cc2)cc1 [IWR-11] | – | EC50 (Wnt/β-catenin pathway; [3]): 3 µM |
| O=C(Nc1ccccc1Br)c1ccc(N2C(=O)[C@@H]3[C@@H]4C=CC(C4)[C@@H]3C2=O)cc1 [Compound 9] | > 25 | – |
| O=C(Nc1ccc(F)cc1)c1ccc(N2C(=O)[C@@H]3[C@@H]4C=CC(C4)[C@@H]3C2=O)cc1 [Compound 13] | 4 | inhibition of fin regeneration [1]: partial inhibition |
| COc1ccccc1NS(=O)(=O)c1ccc(N2C(=O)[C@@H]3[C@@H]4C=CC(C4)[C@@H]3C2=O)cc1 [IWR-12] | – | EC50 (Wnt/β-catenin pathway; [3]): 10 µM |
| O=C(Nc1cccc(C(F)(F)F)c1)c1ccc(N2C(=O)[C@@H]3[C@@H]4C=CC(C4)[C@@H]3C2=O)cc1 [Compound 27] | 20 | – |
| O=C(NCc1cccnc1)c1ccc(N2C(=O)[C@@H]3[C@@H]4C=CC(C4)[C@@H]3C2=O)cc1 [Compound 31] | > 25 | – |
| O=C(Nc1ccccc1Cl)c1ccc(N2C(=O)[C@@H]3[C@@H]4C=CC(C4)[C@@H]3C2=O)cc1 [Compound 8] | > 25 | – |

| SMILES | EC50 (Wnt/β-catenin pathway; [2]) [µM] | also measured |
| --- | --- | --- |
| O=C(Nc1ccc(Br)c(Br)c1)c1ccc(N2C(=O)[C@@H]3[C@@H]4C=CC(C4)[C@@H]3C2=O)cc1 [Compound 24] | 10 | – |
| O=C(Nc1ccc(Br)cc1)c1ccc(N2C(=O)[C@@H]3[C@@H]4C=CC(C4)[C@@H]3C2=O)cc1 [Compound 15] | 1 | – |
| O=C(Nc1cccc(F)c1F)c1ccc(N2C(=O)[C@@H]3[C@@H]4C=CC(C4)[C@@H]3C2=O)cc1 [Compound 16] | > 25 | – |
| O=C(NCc1ccccn1)c1ccc(N2C(=O)[C@@H]3[C@@H]4C=CC(C4)[C@@H]3C2=O)cc1 [Compound 30] | > 25 | – |
| O=C(Nc1cccc2cccnc12)c1ccc(N2C(=O)[C@@H]3[C@@H]4CCC(C4)[C@@H]3C2=O)cc1 [Compound 52] | – | EC50 (Wnt/β-catenin pathway; [3]): 0.2 µM |
| O=C(Nc1ccc(C(F)(F)F)cc1)c1ccc(N2C(=O)[C@@H]3[C@@H]4C=CC(C4)[C@@H]3C2=O)cc1 [Compound 28] | > 25 | – |
| O=C(NC1CCCc2cccnc21)c1ccc(N2C(=O)[C@@H]3[C@@H]4C=CC(C4)[C@@H]3C2=O)cc1 (stereo partly shown) [Compound 4] | 10 | – |
| O=C1[C@@H]2[C@@H]3C=CC(C3)[C@@H]2C(=O)N1c1ccc(S(=O)(=O)Nc2cccc(Br)c2)cc1 [IWR-10] | – | EC50 (Wnt/β-catenin pathway; [3]): 2 µM |
| O=C(Nc1cccc(Br)c1)c1ccc(N2C(=O)[C@@H]3[C@@H]4C=CC(C4)[C@@H]3C2=O)cc1 [Compound 12] | 9 | – |
| O=C(Nc1cccc2cccnc12)c1ccc(N2C(=O)[C@@H]3[C@H]4C=CC(C4)[C@@H]3C2=O)cc1 [Compound 51] | – | EC50 (Wnt/β-catenin pathway; [3]): 5 µM |
| COc1ccc(NS(=O)(=O)c2ccc(N3C(=O)[C@@H]4[C@@H]5C=CC(C5)[C@@H]4C3=O)cc2)cc1 [IWR-14] | – | EC50 (Wnt/β-catenin pathway; [3]): 10 µM |
| O=C(Nc1c(F)cccc1F)c1ccc(N2C(=O)[C@@H]3[C@@H]4C=CC(C4)[C@@H]3C2=O)cc1 [Compound 21] | > 25 | – |
| O=C1[C@@H]2[C@@H]3C=CC(C3)[C@@H]2C(=O)N1c1ccc(S(=O)(=O)Nc2ccccc2Br)cc1 [IWR-9] | – | EC50 (Wnt/β-catenin pathway; [3]): > 25 µM |
| O=C(Nc1ccc(Cl)c(Cl)c1)c1ccc(N2C(=O)[C@@H]3[C@@H]4C=CC(C4)[C@@H]3C2=O)cc1 [Compound 23] | 5 | – |
| O=C(NC1CCCCC1)c1ccc(N2C(=O)[C@@H]3[C@@H]4C=CC(C4)[C@@H]3C2=O)cc1 [Compound 35] | > 25 | – |
| O=C1[C@@H]2[C@@H]3C=CC(C3)[C@@H]2C(=O)N1c1ccc(S(=O)(=O)Nc2cccc3cccnc23)cc1 [IWR-8] | – | EC50 (Wnt/β-catenin pathway; [3]): > 25 µM |
| O=C(Nc1ccccc1)c1ccc(N2C(=O)[C@@H]3[C@@H]4C=CC(C4)[C@@H]3C2=O)cc1 [Compound 6] | > 25 | – |
| O=C(Nc1ccc(Cl)cc1Cl)c1ccc(N2C(=O)[C@@H]3[C@@H]4C=CC(C4)[C@@H]3C2=O)cc1 [Compound 18] | 10 | – |
| O=C(Nc1ccc(Cl)cc1)c1ccc(N2C(=O)[C@@H]3[C@@H]4C=CC(C4)[C@@H]3C2=O)cc1 [Compound 14] | 3 | – |
| O=C(Nc1cc(F)cc(F)c1)c1ccc(N2C(=O)[C@@H]3[C@@H]4C=CC(C4)[C@@H]3C2=O)cc1 [Compound 25] | > 25 | – |
